# Measurements as given in ChEMBL document CHEMBL5705884, “Breaching the DNA damage checkpoint via PF-00477736, a novel small-molecule inhibitor of checkpoint kinase 1” (Mol Cancer Ther, 2008).
# Activity calls are given as the source filed them. The calls are words filed in the database; no cut-off is given here.
# Legend:
# COLO 205 [1] = assay: Antitumor activity against human COLO 205 cells xenografted in athymic nude mouse model assessed as gross log cell kill at 40 mg/kg, ip administered twice daily in presence of gemcitabine (Gemcitabine alone = 0.5%); type: functional
# COLO 205 [2] = assay: Antitumor activity against human COLO 205 cells xenografted in athymic nude mouse model assessed as gross log cell kill at 15 mg/kg, ip administered twice daily in presence of gemcitabine (Gemcitabine alone = 0.27%); type: functional
# HT-29 [3] = assay: Antiproliferative activity against human HT-29 cells deficit of p53 expression assessed as inhibition of cell growth measured after 96 hrs by MTT assay; type: functional, cell-based; settings: HT-29, 96 h
# [4] = Cmax in nu/nu mouse at 40 mg/kg, ip by LCMS analysis; type: ADME, organism-based; settings: in vivo
# COLO 205 [5] = assay: Antitumor activity against human COLO 205 cells xenografted in athymic nude mouse model assessed as tumor growth inhibition at 4 mg/kg, ip administered once daily in presence of gemcitabine (Gemcitabine alone= 58%); type: functional; settings: read-out: TGI
# [6] = AUC (0 to infinity) in nu/nu mouse at 20 mg/kg, ip by LCMS analysis; type: ADME, organism-based; settings: in vivo
# COLO 205 [7] = assay: Antitumor activity against human COLO 205 cells xenografted in athymic nude mouse model assessed as tumor growth delay by measuring test to control tumor ratio at 12 mg/kg, ip administered once daily in presence of gemcitabine (Gemcitabine alone= 8%); type: functional
# HT-29 [8] = assay: Potentiation of gemcitabine induced cytotoxicity in human HT-29 cells assessed as cell survival at 540 nM measured after 4 to 48 hrs by coulter counter method relative to gemcitabine alone; type: functional; settings: time 4-48 hrs, read-out: Activity
# COLO 205 [9] = assay: Antitumor activity against human COLO 205 cells xenografted in athymic nude mouse model assessed as potentiated tumor growth inhibition at 30 mg/kg, ip administered twice daily in presence of gemcitabine relative to control; type: functional; settings: read-out: TGI
# COLO 205 [10] = assay: Antitumor activity against human COLO 205 cells xenografted in athymic nude mouse model assessed as gross log cell kill at 12 mg/kg, ip administered once daily in presence of gemcitabine (Gemcitabine alone = 0.5%); type: functional
# COLO 205 [11] = assay: Antitumor activity against human COLO 205 cells xenografted in athymic nude mouse model assessed as tumor growth delay by measuring test to control tumor ratio at 40 mg/kg, ip administered twice daily in presence of gemcitabine (Gemcitabine alone= 8%); type: functional
# MDA-MB-231 [12] = assay: Potentiation factor, ratio of IC50 for human MDA-MB-231 cells to IC50 for human MDA-MB-231 cells in presence of gemcitabine; type: functional
# COLO 205 [13] = assay: Antitumor activity against human COLO 205 cells xenografted in athymic nude mouse model assessed as gross log cell kill at 24 mg/kg, ip administered twice daily in presence of gemcitabine (Gemcitabine alone = 0.5%); type: functional
# COLO 205 [14] = assay: In vivo inhibition of Chk1 in athymic nude mouse xenografted with gemcitabine treated human COLO 205 cells assessed as increase in phospho histone H2AX level at 7.5 to 15 mg/kg by immunohistochemical analysis; type: functional, organism-based; settings: dose 7.5-15 mg/kg
# COLO 205 [15] = assay: Antitumor activity against human COLO 205 cells xenografted in athymic nude mouse model assessed as potentiated tumor growth inhibition at 7.5 mg/kg, ip administered twice daily in presence of gemcitabine relative to control; type: functional; settings: read-out: TGI
# MDA-MB-231 [16] = assay: Potentiation factor, ratio of IC50 for human MDA-MB-231 cells to IC50 for human MDA-MB-231 cells in presence of doxorubicin; type: functional
# HT-29 [17] = assay: Upregulation of cyclin B level in gemcitabine induced human HT-29 cells at 360 nM measured after 10 hrs by immunoblot analysis; type: functional, cell-based
# [18] = AUC (0 to infinity) in nu/nu mouse at 4 mg/kg, ip by LCMS analysis; type: ADME, organism-based; settings: in vivo
# HT-29 [19] = assay: Inhibition of camptothecin induced DNA damage in human HT-29 cells assessed as increase in mitotic index by measuring histone H3 phosphorylation at S10 residue at 0.001 to 1 uM measured after 16 hrs presence of nocodazole by dot blot assay; type: functional, cell-based; settings: HT-29, 16 h
# COLO 205 [20] = assay: Antitumor activity against human COLO 205 cells xenografted in athymic nude mouse model assessed as potentiated tumor growth inhibition at 20 mg/kg, ip administered once daily in presence of gemcitabine relative to control; type: functional; settings: read-out: TGI
# [21] = AUC (0 to infinity) in Sprague-Dawley rat at 4 mg/kg, iv administered as bolus dose by LCMS analysis; type: ADME, organism-based; settings: in vivo
# HT-29 [22] = assay: Inhibition of cell cycle arrest in human HT-29 cells assessed as inhibition of gemcitabine induced S-phase arrest pretreated with gemcitabine followed by compound treatment and measured after 10 to 48 hrs by flow cytometry analysis; type: functional, cell-based; settings: time 10-48 hrs
# COLO 205 [23] = assay: Potentiation factor, ratio of IC50 for human COLO 205 cells to IC50 for human COLO 205 cells in presence of gemcitabine; type: functional
# COLO 205 [24] = assay: Antitumor activity against human COLO 205 cells xenografted in athymic nude mouse model assessed as tumor growth delay by measuring test to control tumor ratio at 4 mg/kg, ip administered once daily in presence of gemcitabine (Gemcitabine alone = 8 %); type: functional
# HT-29 [25] = assay: Potentiation of gemcitabine induced cytotoxicity in human HT-29 cells assessed as cell survival at 180 nM measured after 4 to 48 hrs by coulter counter method relative to gemcitabine alone; type: functional; settings: time 4-48 hrs, read-out: Activity
# HT-29 [26] = assay: Potentiation of gemcitabine induced cytotoxicity in human HT-29 cells assessed as cell survival at 360 nM measured after 4 to 48 hrs by coulter counter method relative to gemcitabine alone; type: functional; settings: time 4-48 hrs, read-out: Activity
# HT-29 [27] = assay: Potentiation factor, ratio of IC50 for human HT-29 cells to IC50 for human HT-29 cells in presence of SN-38; type: functional
# COLO 205 [28] = assay: Antitumor activity against human COLO 205 cells xenografted in athymic nude mouse model assessed as tumor growth inhibition at 30 mg/kg, ip administered twice daily in presence of gemcitabine (Gemcitabine alone = 40%); type: functional; settings: read-out: TGI
# COLO 205 [29] = assay: Antitumor activity against human COLO 205 cells xenografted in athymic nude mouse model assessed as gross log cell kill at 7.5 mg/kg, ip administered twice daily in presence of gemcitabine (Gemcitabine alone = 0.27%); type: functional
# HT-29 [30] = assay: Potentiation of camptothecin induced cytotoxicity in human HT-29 cells assessed as cell survival at 540 nM measured after 4 to 48 hrs by coulter counter method relative to camptothecin alone; type: functional; settings: time 4-48 hrs, read-out: Activity
# COLO 205 [31] = assay: Antitumor activity against human COLO 205 cells xenografted in athymic nude mouse model assessed as tumor growth delay by measuring test to control tumor ratio at 24 mg/kg, ip administered twice daily in presence of gemcitabine (Gemcitabine alone= 8%); type: functional
# HT-29 [32] = assay: Induction of apoptosis in gemcitabine induced human HT-29 cells assessed as apoptotic cell death measured after 10 hrs by PI staining based flow cytometry analysis (reference value: 0.6%); type: functional
# COLO 205 [33] = assay: Antitumor activity against human COLO 205 cells xenografted in athymic nude mouse model assessed as potentiated tumor growth inhibition at 15 mg/kg, ip administered twice daily in presence of gemcitabine relative to control; type: functional; settings: read-out: TGI
# [34] = target: Proto-oncogene tyrosine-protein kinase receptor Ret (Homo sapiens, UniProt P07949); assay: Inhibition of Ret (unknown origin)
# Chain of Proto-oncogene tyrosine-protein kinase receptor Ret (P07949 whole entry): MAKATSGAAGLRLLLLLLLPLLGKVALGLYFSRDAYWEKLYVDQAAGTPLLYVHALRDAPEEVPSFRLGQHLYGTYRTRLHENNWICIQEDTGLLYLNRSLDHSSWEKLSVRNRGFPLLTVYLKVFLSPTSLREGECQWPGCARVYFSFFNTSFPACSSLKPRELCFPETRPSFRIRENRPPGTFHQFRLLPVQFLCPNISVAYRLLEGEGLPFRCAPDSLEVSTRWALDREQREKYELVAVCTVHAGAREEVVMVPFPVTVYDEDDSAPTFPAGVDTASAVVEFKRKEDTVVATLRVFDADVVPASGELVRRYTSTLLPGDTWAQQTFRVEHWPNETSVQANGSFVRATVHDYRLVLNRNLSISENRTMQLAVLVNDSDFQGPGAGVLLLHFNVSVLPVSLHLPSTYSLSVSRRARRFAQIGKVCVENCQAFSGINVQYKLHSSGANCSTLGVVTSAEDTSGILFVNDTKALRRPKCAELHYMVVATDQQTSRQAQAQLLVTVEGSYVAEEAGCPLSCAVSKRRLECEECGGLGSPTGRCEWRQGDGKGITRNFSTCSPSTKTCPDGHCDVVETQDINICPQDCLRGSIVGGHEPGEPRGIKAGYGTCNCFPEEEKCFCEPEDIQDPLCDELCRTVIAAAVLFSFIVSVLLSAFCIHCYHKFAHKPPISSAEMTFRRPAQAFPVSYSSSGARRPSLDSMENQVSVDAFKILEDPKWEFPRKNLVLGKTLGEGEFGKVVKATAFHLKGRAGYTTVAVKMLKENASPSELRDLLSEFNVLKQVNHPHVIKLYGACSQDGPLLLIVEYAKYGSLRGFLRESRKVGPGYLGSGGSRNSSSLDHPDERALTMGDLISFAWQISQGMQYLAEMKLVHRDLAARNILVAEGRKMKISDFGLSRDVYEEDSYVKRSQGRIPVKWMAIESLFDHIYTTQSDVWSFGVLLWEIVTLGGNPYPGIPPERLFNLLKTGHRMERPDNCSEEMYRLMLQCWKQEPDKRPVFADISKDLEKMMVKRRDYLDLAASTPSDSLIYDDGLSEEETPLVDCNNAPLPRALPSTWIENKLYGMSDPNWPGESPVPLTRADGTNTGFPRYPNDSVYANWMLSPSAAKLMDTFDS
structure (smiles),measurement,setting,value
Cn1cc(-c2[nH]c3cc(NC(=O)[C@H](N)C4CCCCC4)cc4c3c2C=NNC4=O)cn1,LCK,COLO 205 [1],1.25
same,LCK,COLO 205 [2],1.03
same,IC50,HT-29 [3],1800 nM
same,Cmax,[4],6780 ng/mL
same,inhibition in vivo at 4 mg/kg,COLO 205 [5],58%
same,AUC(0-inf),[6],2670 ng·h/mL
same,T/C,COLO 205 [7],8.5
same,viability at 0.54 µM,HT-29 [8],69%
same,inhibition in vivo at 30 mg/kg,COLO 205 [9],64%
same,LCK,COLO 205 [10],0.53
same,T/C,COLO 205 [11],20
same,PF50,MDA-MB-231 [12],3.6
same,LCK,COLO 205 [13],0.75
same,inhibition,COLO 205 [14],Active
same,inhibition in vivo at 7.5 mg/kg,COLO 205 [15],50%
same,PF50,MDA-MB-231 [16],2.25
same,Activity,HT-29 [17],Active
same,AUC(0-inf),[18],490 ng·h/mL
same,EC50,HT-29 [19],42 nM
same,inhibition in vivo at 20 mg/kg,COLO 205 [20],43%
same,AUC(0-inf),[21],5720 ng·h/mL
same,inhibition,HT-29 [22],Active
same,PF50,COLO 205 [23],11.3
same,T/C,COLO 205 [24],8
same,viability at 0.18 µM,HT-29 [25],75%
same,viability at 0.36 µM,HT-29 [26],71%
same,PF50,HT-29 [27],3.7
same,inhibition in vivo at 30 mg/kg,COLO 205 [28],78%
same,LCK,COLO 205 [29],1.21
same,viability at 0.54 µM,HT-29 [30],78%
same,T/C,COLO 205 [31],12
same,Activity,HT-29 [32],0.1%
same,inhibition in vivo at 15 mg/kg,COLO 205 [33],44%
same,IC50,[34],80 nM
